Results: patent US20090155218A1, “COMPOSITIONS AND METHODS FOR GROWTH OF EMBRYONIC STEM CELLS” (priority 2004, published 2009)
“Also recorded” adds a separate entry of the source.

Columns and labels:
[1] = test system: hES cells; assay: Proliferation assay, 3H thymidine incorporation; assay type: cell-based, human; details: on laminin, 16 hours pulse, n=4
Experimental: Proliferation assay to quantify rates of proliferation under different culture conditions: Cells were cultured in 6 well plates on laminin in the presence of either FGF2-supplemented CM from feeder layers or activin A, KGF, NIC, or a combination of these 3 factors. Cultures were pulsed with 1 μCi/ml [methyl ^3H] thymidine (specific activity 6.7 Ci/mmol; MP Biomedicals, Irvine Calif.; www.mpbio.com) in newly replenished medium. After 16 hours, cells were harvested and thymidine incorporation into cells was quantified as previously described.^23 Briefly, DNA content was measured fluoremetrically, and incorporation of ^3H thymidine was determined by liquid scintillation counting of trichloracetic acid precipitates of the sonicated cells. Statistical significance of observed differences was determined by analysis of variance and Fischer's protected least significance difference test with a 95% level as the limit of significance using Statview IV (Abacus Concepts, Berkeley Calif.).

[2] = test system: TGFβ; details: cited from earlier work
[3] = test system: members of the BMP family; details: cited from earlier work
[4] = test system: HSF6 cells; assay: Follistatin added to HSF6 cells on mEFs (immunohistochemistry, RT-PCR); assay type: cell-based, human; details: on mEFs with follistatin
Experimental: (§1) Stem cell culture: hES cell line HSF6 was maintained on mitomycin C treated CF1 mouse feeder layers (mEF) at 37° C., 5% CO2 in DSR medium, which consisted of high glucose DMEM containing knockout serum replacer, glutamine, non-essential amino acids, 0.1 mM β-mercaptoethanol (all from Gibco, Carlsbad, Calif.; www.invitrogen.com) as previously described,^19 or on laminin (20 μg/ml, Chemicon, www.chemicon.com) coated dishes or in DSR containing 50 ng/ml human recombinant Activin A (ACT A), 50 ng/ml human recombinant Keratinocyte Growth Factor (KGF), both from Preprotech Inc. (Rocky Hill N.J.; www.preprotech.com). These concentrations were determined from previous experiments with human fetal pancreatic cell culture.^14, 20 In some experiments, 10 ng/ml human recombinant Bone Morphogenetic Protein 4 (BMP-4; R&D Systems Minneapolis, Minn. www.RnDSystems.com) was used to replace ACT A, and 0.4 μg/ml follistatin (R&D Systems) was added to ES cells grown on mEFs, sufficient to neutralize 50 ng/ml Act A according to the manufacturer's directions. Medium was changed every day on cells grown on mEFs and every other day, on cells grown on laminin with the growth factors. Cells were passaged weekly at 1:3 or 1:4 dilution.
In some experiments, 10 ng/ml human recombinant Bone Morphogenetic Protein 4 (BMP-4; R&D Systems Minneapolis, Minn. www.RnDSystems.com) was used to replace activin A, and 2 μg/ml recombinant mouse FS-288 follistatin (R&D Systems) was added to ES cells grown on mEFs, sufficient to neutralize 50 ng/ml activin A according to manufacturer's directions. Medium was changed every day on cells grown on mEFs or in CM and every other day, on cells grown on laminin with the growth factors. Cells were passaged weekly at 1:3 or 1:4 dilution by gentle treatment with 1 mg/ml Collagenase IV (Gibco BRL) for 5 minutes, followed by scraping.
Immunohistochemistry: Stem cell cultures were grown on coverslips coated with mEFs or laminin fixed with 4% paraformaldehyde and stained. Protein expression of the stem cell markers TRA-1-60 and Oct-4 was analyzed by immunohistochemistry using primary mouse anti-TRA-1-60 (Chemicon) and rabbit anti-OCT-4 antiserum (a generous gift from Dr Hans Scholer, U Penn). Control slides were incubated with mouse IgM and rabbit IgG. […]
Alternatively, hES cell cultures were grown on coverslips coated with mEFs or laminin, fixed with 4% paraformaldehyde and immunostained as previously described.^4 Protein expression of the stem cell markers TRA-1-60, SSEA-4 and Oct-4 was analyzed using primary mouse anti-TRA-1-60 IgM (Chemicon) mouse anti-SSEA-4 IgG3 (DSHB, U of Iowa, Iowa City, Iowa), and rabbit anti-Oct-4 antiserum (a generous gift from Dr Hans Scholer, U Penn). […]

[5] = biological target: T1, activin A (Homo sapiens, UniProt P08476); details: cited from earlier work
T1 sequence (P08476 311-426): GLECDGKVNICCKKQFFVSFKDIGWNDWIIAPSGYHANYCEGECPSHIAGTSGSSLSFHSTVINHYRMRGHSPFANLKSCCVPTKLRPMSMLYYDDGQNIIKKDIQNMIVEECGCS

[6] = test system: hES cell line HSF6; assay: Long-term feeder-free culture and passaging in the undifferentiated state; assay type: cell-based, human
Experimental: as §1
Alternatively, hES cell line HSF6 was maintained on mitomycin C treated CF1 mouse feeder layers (mEF) at 37° C., 5% CO2 in DSR medium as previously described^4. For the experiments described here, passage 43 hES cells were cultured on laminin (20 μg/ml, Chemicon, www.chemicon.com) coated dishes in the presence of conditioned medium from mEFs (CM) supplemented with 10 ng/ml basic fibroblast growth factor (FGF2; Preprotech Inc. Rocky Hill N.J.; www.preprotech.com), or on laminin in DSR medium containing 50 ng/ml human recombinant activin A, 50 ng/ml human recombinant KGF, both from Preprotech, and 10 mM Nicotinamide (NIC; Sigma Corp, St Louis Mo.). […]

[7] = test system: HSF6 cells; assay: Flow cytometric analysis of TRA-1-60 cell-surface antigen expression; assay type: cell-based, human; details: activin removed from the culture for 1 week (NIC+KGF remain)
Experimental: Alternatively, hES cell line HSF6 was maintained on mitomycin C treated CF1 mouse feeder layers (mEF) at 37° C., 5% CO2 in DSR medium as previously described^4. For the experiments described here, passage 43 hES cells were cultured on laminin (20 μg/ml, Chemicon, www.chemicon.com) coated dishes in the presence of conditioned medium from mEFs (CM) supplemented with 10 ng/ml basic fibroblast growth factor (FGF2; Preprotech Inc. Rocky Hill N.J.; www.preprotech.com), or on laminin in DSR medium containing 50 ng/ml human recombinant activin A, 50 ng/ml human recombinant KGF, both from Preprotech, and 10 mM Nicotinamide (NIC; Sigma Corp, St Louis Mo.).
Flow cytometric analysis: Flow cytometry was used to quantify undifferentiated cells under different culture conditions. Cells were harvested using a 60 minute collagenase treatment followed by shearing into a single cell suspensions and filtering using a 70 micron cell filter. Single cells from each condition were labeled with mouse anti TRA-1-60 or mouse IgM (for controls) and FITC-conjugated donkey anti-mouse IgM (Jackson Immunoresearch). Cells were analyzed using a Becton Dickinson FACScan, and cell-surface antigen expression quantitated using CellQuest software.

[8] = test system: Smad2; assay: Western blotting for phosphorylated Smad2; assay type: cell-based, human; details: HSF6 cells grown in the presence of Activin A
Experimental: Western blotting: Western blotting was used for phosphorylated Smad2, and was performed on lysates of HSF6 cells as previously described.^4 Cells cultured in the presence of activin A were lysed in detergent containing buffer supplemented with vanadate (10 μM) and microcystin (1 μM) and first blotted with phospho-Smad2 (ser465/467) antibody (Cell Signaling, cellsignal.com). Blots were then stripped and reprobed with Smad2 antibody (Cell Signaling).

[9] = test system: HSF6 cells; assay: Immunohistochemistry of stem cell markers in hES cells grown on laminin; assay type: cell-based, human; details: NK and A for 1 week
Experimental: as §1
(§2) Alternatively, hES cell line HSF6 was maintained on mitomycin C treated CF1 mouse feeder layers (mEF) at 37° C., 5% CO2 in DSR medium as previously described^4. […]

[10] = test system: hES cells; assay: Semi-quantitative RT-PCR of stem cell markers in hES cells grown on laminin; assay type: cell-based, human; details: 1 week for NK and BMP-4 (10 ng/ml, replacing activin A)
Experimental: as §1, §2

NC(=O)c1cccnc1 [NIC, nicotinamide, reference compound]
proliferation rate (3H thymidine incorporation) [1]: intermediate

follistatin
binding to TGFβ [2]: does not bind | affinity for members of the BMP family [3]: lower affinity | expression of oct-4 and nanog, RT-PCR ([4]; 1 week): absent (nanog) or markedly diminished (oct-4) | staining for TRA-1-60 and Oct-4 (immunohistochemistry) ([4]; 1 week): lost staining for TRA-1-60 (cytoplasmic), with reduced staining for Oct-4 | expression of oct-4 and nanog, RT-PCR ([4]; 2 weeks): completely lost | staining for Oct-4 (immunohistochemistry) ([4]; 2 weeks): Oct-4 immunoreactivity had completely disappeared | affinity for activin A [5]: extremely high affinity

B1: Activin A: human recombinant Activin A, TGFβ family member; homodimer of inhibin beta-A chain (protein)
chain: T1 sequence (P08476 311-426)
proliferation rate (3H thymidine incorporation) [1]: significantly reduced | concentration optimal to maintain the cells in an undifferentiated state ([6]; dose response at 5, 50 and 100 ng/ml): 50 ng/mL | continued growth and passaging ([6]; on laminin): could not be passaged further | passages of continuous growth in the undifferentiated state ([6]; on laminin, without feeder layers, conditioned medium or STAT3 activation): at least 10 passages | percentage of cells expressing TRA-1-60 after removal of activin [7]: 3.9% | Smad2 phosphorylation [8]: showing phospho-Smad 2 | staining for TRA-1-60 and Oct-4 / phenotype (immunohistochemistry) [9]: no change in phenotype

B2: BMP-4: human recombinant Bone Morphogenetic Protein 4, another TGFβ family member, used to replace activin A (protein, UniProt P12644 293-408, looked up)
Bone morphogenetic protein 4: SPKHHSQRARKKNKNCRRHSLYVDFSDVGWNDWIVAPPGYQAFYCHGDCPFPLADHLNSTNHAIVQTLVNSVNSSIPKACCVPTELSAISMLYLDEYDKVVLKNYQEMVVEGCGCR
expression of stem cell markers oct-4, nanog (telomerase), RT-PCR [10]: loss of expression for nanog, oct-4, and telomerase; also recorded: complete loss of expression for nanog and oct-4
